Laboratory results reported in patent publication US20250304623A1, “PEPTIDES FOR INTRACELLULAR DELIVERY” (UNIVERSIDADE DE SANTIAGO DE COMPOSTELA, priority 2022, published 2025).
*: point of attachment. NHNH2 = NN*

Key:
Assay type in all cases: cell-based
[1] = test system: Hela cells; assay: RLuc pDNA delivery, robotic library screening, HeLa
Description: Cells were seeded in a 96 well plate the day before the experiment at a concentration of 60,000 cell/mL (100 μL/w) in DMEM+10% FBS+1% Gln-Abt. For robotic library screening, the delivery of pDNA encoding for the expression of Renilla luciferase gene (RLuc, pRL-CMV (Promega, #E2261)) in six different cell lines was performed. […] The mixture was shaken for 30 min at room temperature before the addition to the cells. The cell medium was aspirated, and cells were washed twice with PBS. Finally, 50 μL of the complex's solution were added to the cells and incubated for 4 h. After the incubation, the medium was replaced by 100 μL of fresh DMEM supplemented with 10% FBS. 72 hours after transfection the DMEM was removed, cells were washed once with HBSS and 90 μL of HBSS were added to each well. Cells were incubated at 37° C. for 30 minutes. Then basal luminescence levels were read in a plate reader. Immediately, 10 μL of coelenterazine h in HBSS were added to each well (5 μM final concentration) and cells were incubated at 37° C. for 10 minutes. Finally, the total luminescence measurement of the plates was performed. Amphiphile transfection efficiency was compared and normalized to Lipofectamine® 2000 efficiency (value of 1 in Tables 1-5 and 7; bold numbers). All experiments were done in triplicate.
(§1) Tables 1-7: RLuc (pDNA) or EGFP (mRNA) expression levels were normalized to Lipofectamine reagents (value=1) and expressed as fold-times signal increase. In the case of siRNA, the siRNA treated cells fluorescence was compared with siMOCK control fluorescence, while Cas9-RNP mediated knockout was measured against the fluorescence of untreated cells. In both siRNA and Cas9-RNP, values are expressed as % fluorescence reduction. Amphiphile concentration was 5 μM in all cases. All experiments were performed in triplicate.
Tables 8-13 show the mean (triplicates) luminescent intensity (RLU) measured after the transfection of RLuc pDNA by different amphiphiles at different concentrations in a variety of cell lines. Background luminescence values, accounted by untransfected control cells, were subtracted for processing.

[2] = test system: A549 cells; assay: EGFP mRNA delivery, robotic library screening, A549
Description: Cells were seeded in a 96 well plate the day before the experiment at a concentration of 50,000 cell/mL (100 μL/w) in DMEM+10% FBS+1% Gln-Abt. For robotic library screening, the delivery of EGFP-mRNA (from TriLink, fully substituted with 5-methoxyuridine, capped and polyadenylated; TriLink, CleanCap® EGFP mRNA (5moU), ref. L-7201) in six different cell lines was performed. Amphiphilic molecule stock solutions were prepared in DMSO as described above and diluted in DMEM to afford a range of concentrations. The solutions of EGFP-mRNA/amphiphilic molecule complexes were freshly prepared prior to the transfection experiments. 35 μL of the corresponding amphiphile were added to 10 μL of a solution of EGFP-mRNA at 10 ng/μL in DMEM. The mixture was shaken for 30 min at room temperature before the addition to the cells. The cell medium was aspirated, and cells were washed with PBS twice. Cells were covered with 39 μL of DMEM and 11 μL of the complex's solution were added to the cells and incubated for 4 h (final concentration of peptide=2.5, 5 and 10 μM; final concentration of EGFP-mRNA=25 ng/well). After the incubation, the medium was replaced by 100 μL of fresh DMEM supplemented with 10% FBS. The total EGFP fluorescence was quantified after 72 h in a well plate reader. Amphiphile transfection efficiency was compared and normalized to Lipofectamine® MessengerMax efficiency (value of 1 in Tables 1-5 and 7; double underlined numbers). All experiments were done in triplicate.
as §1
Tables 14-19 show the mean (triplicates) fluorescence intensity measured after the transfection of EGFP mRNA by different amphiphiles at different concentrations in a variety of cell lines. Background fluorescence values, accounted by untreated control cells, were subtracted for processing.

[3] = test system: HCT116 cells expressing EGFP; assay: EGFP-targeting siRNA delivery (GFP silencing vs siMOCK), HCT116
Description: To generate an EGFP expressing HeLa cell line, HeLa cells were transfected with EGFP pDNA (pEGFP-C1, Clontech) and stable transfectants were selected with 400 μg/mL of G-418 (Millipore). Green clones were selected by epifluorescence microscopy and tested for EGFP expression stability through several passages. […] All other EGFP-expressing cell lines were obtained in a similar way from parent non-EGFP-expressing cell lines.
Cells expressing EGFP were seeded in a 96 well plate the day before the experiment at a concentration of 50,000 cell/mL (100 μL/w) in DMEM+10% FBS+1% Gln-Abt. For robotic library screening, the delivery of an EGFP-targeting siRNA (EGFP: enhanced green fluorescent protein, Ambion® Silencer® GFP Positive Control siRNA (siGFP) (AM4626)) in six different cell lines expressing EGFP was performed. Amphiphilic molecules stock solutions in DMSO were diluted with DMEM and freshly mixed with siRNA stock solutions in DMEM prior to transfection experiments, to afford several complexes at different amphiphile concentration (2-10 μM) while maintaining a constant final siRNA concentration of 30 nM. The mixture was shaken for 30 min at room temperature (rt) before the addition to the cells. The cell medium was aspirated, and cells were washed twice with PBS. Finally, 50 μL of the solution of siRNA/amphiphile complexes were added to the cells and incubated for 4 h. After transfection, the medium was replaced by 100 μL of fresh DMEM supplemented with 10% FBS. The fluorescence knockdown was quantified after 72 h in a plate reader, by comparison with cells transfected with a non-targeting siRNA control (siMOCK, Silencer™ Negative Control No. 1 siRNA (siMOCK) (AM4611)). EGFP knockdown was compared with Lipofectamine® RNAiMAX silencing efficiency (30-60% depending on cell line, defined with a numeric value in the below tables). All experiments were done in triplicate.
as §1
Tables 20-25 show the mean (triplicates) percentage of GFP-silencing, accounted by fluorescence intensity decrease relative to a non-targeting siRNA (siMOCK) control, measured after the transfection of siRNA by different amphiphiles at different concentrations in a variety of cell lines. Background values, accounted by untreated control cells, were subtracted for processing.

In the case of “Ac-RHLK*RHK*RRLK*RH-NH2 (Ac-RHLKRHKRRLKRH-NH2; not fully specified (residues 4, 7, 11); printed as Ac-RHLK*RHK*RRLK*RH-NH2; also: linker on K* not given here) [13(3His)]”, the “mean luminescent intensity (RLuc pDNA)” value ([1]; HeLa, Oleyl, 5 μM) is reported as 226412 RLU, the “mean luminescent intensity (RLuc pDNA)” value ([1]; HeLa, Petroselinyl, 10 μM) is reported as 115599 RLU and the “mean luminescent intensity (RLuc pDNA)” value ([1]; Hela, Myristoleyl, 5 μM) is reported as −294 RLU. The “mean luminescent intensity (RLuc pDNA)” value ([1]; Hela, Myristoleyl, 10 μM) was −246 RLU, the “mean luminescent intensity (RLuc pDNA)” value ([1]; Hela, Myristoleyl, 15 μM) was −405 RLU and the “mean luminescent intensity (RLuc pDNA)” value ([1]; Hela, Oleyl, 10 μM) was 180751 RLU. For the same substance, the “mean luminescent intensity (RLuc pDNA)” value ([1]; Hela, Oleyl, 15 μM) was 31589 RLU, the “mean luminescent intensity (RLuc pDNA)” value ([1]; Hela, Palmitoleyl, 5 μM) was 8590 RLU and the “mean luminescent intensity (RLuc pDNA)” value ([1]; Hela, Petroselinyl, 5 μM) was 122581 RLU. For the same substance, the “mean luminescent intensity (RLuc pDNA)” value ([1]; Hela, Petroselinyl, 15 μM) was 25022 RLU, the “mean fluorescence intensity (EGFP mRNA)” value ([2]; Dodecanal, 2.5 μM) was 622 and the “mean fluorescence intensity (EGFP mRNA)” value ([2]; Dodecanal, 5 μM) was 945. For the same substance, the “mean fluorescence intensity (EGFP mRNA)” value ([2]; Dodecanal, 10 μM) was 453, the “mean fluorescence intensity (EGFP mRNA)” value ([2]; Myristoleyl, 2.5 μM) was 1558 and the “mean fluorescence intensity (EGFP mRNA)” value ([2]; Myristoleyl, 5 μM) was 1386. For the same substance, the “mean fluorescence intensity (EGFP mRNA)” value ([2]; Myristoleyl, 10 μM) was 696, the “mean fluorescence intensity (EGFP mRNA)” value ([2]; Oleyl, 2.5 μM) was 1063 and the “mean fluorescence intensity (EGFP mRNA)” value ([2]; Oleyl, 5 μM) was 1233. For the same substance, the “mean fluorescence intensity (EGFP mRNA)” value ([2]; Oleyl, 10 μM) was 109, the “mean fluorescence intensity (EGFP mRNA)” value ([2]; Palmitoleyl, 2.5 μM) was 1138 and the “mean fluorescence intensity (EGFP mRNA)” value ([2]; Palmitoleyl, 10 μM) was 65. The “mean fluorescence intensity (EGFP mRNA)” value ([2]; Petroselinyl, 2.5 μM) was 2598, the “mean fluorescence intensity (EGFP mRNA)” value ([2]; Petroselinyl, 5 μM) was 1675 and the “mean fluorescence intensity (EGFP mRNA)” value ([2]; Petroselinyl, 10 μM) was 1017. For the same substance, the “percentage of GFP-silencing relative to siMOCK” value ([3]; Dodecanal, 10 μM) was 62%, the “percentage of GFP-silencing relative to siMOCK” value ([3]; Dodecanal, 15 μM) was 56% and the “percentage of GFP-silencing relative to siMOCK” value ([3]; Myristoleyl, 10 μM) was 45%. The “percentage of GFP-silencing relative to siMOCK” value ([3]; Myristoleyl, 15 μM) was 29%, the “percentage of GFP-silencing relative to siMOCK” value ([3]; Oleyl, 15 μM) was 31% and the “percentage of GFP-silencing relative to siMOCK” value ([3]; Palmitoleyl, 10 μM) was 56%. For the same substance, the “percentage of GFP-silencing relative to siMOCK” value ([3]; Petroselinyl, 5 μM) was 13%, the “percentage of GFP-silencing relative to siMOCK” value ([3]; Petroselinyl, 10 μM) was 60% and the “percentage of GFP-silencing relative to siMOCK” value ([3]; Petroselinyl, 15 μM) was 27%.

With “Ac-RRLK*RLLRRLK*RL-NH2 (Ac-RRLK(NHNH2)RLLRRLK(NHNH2)RL-NH2; not fully specified; printed as Ac-RRLK*RLLRRLK*RL-NH2; also: K*4,K*11: native or modified lysine (ε-amide to a linker)) [Peptide 13.2]” the “mean fluorescence intensity (EGFP mRNA)” value ([2]; Oleyl, 2.5 μM) was 136, the “mean fluorescence intensity (EGFP mRNA)” value ([2]; Oleyl, 5 μM) was 160 and the “mean fluorescence intensity (EGFP mRNA)” value ([2]; Oleyl, 10 μM) was 22. For the same substance, the “percentage of GFP-silencing relative to siMOCK” value ([3]; Dodecanal, 5 μM) was 25%, the “percentage of GFP-silencing relative to siMOCK” value ([3]; Dodecanal, 10 μM) was 41% and the “percentage of GFP-silencing relative to siMOCK” value ([3]; Dodecanal, 15 μM) was 18%. The “percentage of GFP-silencing relative to siMOCK” value ([3]; Oleyl, 5 μM) was 45%, the “percentage of GFP-silencing relative to siMOCK” value ([3]; Oleyl, 10 μM) was 43% and the “percentage of GFP-silencing relative to siMOCK” value ([3]; Oleyl, 15 μM) was 10%.
